Data published in patent publication US10197556B2, “Methods to detect non-genotoxic carcinogens using flatworms” (Universiteit Gent, priority 2015, dated 2019).
Structures can show the parent of a compound that is named as a salt. Where two headings read alike, the source gives them in different places.

Key:
Macrostomum lignano = conditions: for Overall prediction: final prediction call over three experiments; for prediction by the assay in the experiments: outcome over the experiments
Experimental: Cultures of Macrostomum lignano (37) were grown in artificial seawater (ASW) enriched with f/2-medium (40) and fed ad libitum with the diatom Nitzschia curvilineata (PAE culture collection; UGent on the World Wide Web at pae.ugent.be/collection.htm), as described in references 41 and 43.
One week before starting chemical exposure, a six-well plate filled with 4 ml f/2 medium (Novolab NV) was inoculated with diatoms to achieve an ad libitum food source during exposure. Starvation of the worms leads to a decrease in stem cell proliferation (as shown in Nimeth et al (29)), which would interfere with stem cell proliferation, the endpoint of the assay. Before the start of exposure, fifteen adult worms per condition were pipetted in each well, which was then emptied by pipetting without drying out the worms and refilled with f/2 medium (control), if required, F2+0.05% DMSO (vehicle control) and a concentration of the chemical.
The DMSO concentration in the vehicle control never exceeded 0.05%. This represented the maximum DMSO percentage in the chemical's highest test concentration.
To select the appropriate compound concentration, first, a broad concentration range-finding experiment (spacing factor 10; two weeks exposure) was carried out. Based on this pilot range finding, a fine-tuned range finding (spacing factor less than or equal to 2; for D-Mannitol factor 5) was chosen to conduct the assay. The maximum concentration tested depended on the test compound solubility and the requirement of a survival of twelve out of fifteen worms at the end of exposure.
For all chemicals investigated in this disclosure, the medium was refreshed weekly.
After a preliminary test (CP as reference) on different exposure times ranging from two days to six weeks, the worms were exposed for a period of two weeks, after which they were subjected to phosphorylated histone H3 immunostaining (PH3) to quantify mitosis.
To quantify mitotic cells in whole mount specimens, the mitotic marker anti-PH3 was used. The staining was performed by first relaxing the animals in a 1:1 mixture of MgCl2.6H2O (7.14%) and ASW (5 minutes), then in MgCl2.6H2O (7.14%) (undiluted, 5 minutes), followed by fixation in paraformaldehyde (PFA, 4% in PBS, 60 minutes). Animals were then rinsed with phosphate-buffered saline (PBS, 3×5 minutes) and blocked in bovine serum albumin, containing TRITON® (BSA-T, 0.1% TRITON® X-100, 60 minutes). Subsequently, animals were incubated in primary rabbit-anti-phos-H3 (1:300 in BSA-T, overnight, 4° C., Upstate Biotechnology), rinsed in PBS (3×5 minutes) and incubated in secondary TRITC-conjugated swine-anti-rabbit (1:150 in BSA-T, 1 hour, DAKO). Finally, animals were washed with PBS (3×5 minutes) and slides were mounted using Vectashield (Vector Laboratories). Slides were analyzed using a Leica 2500P microscope equipped with epifluorescence, a 40× objective and a DFC360FX CCD camera.
All somatic PH3-positive cells were counted manually using the Image J cell counter plugin (44) (FIG. 1). Gonadal PH3+ cells were not included in the analysis because of 1) the high density of divisions in that region that can lead to overlapping signals and 2) the germ line representing a separate population of cells, differentially tolerant to exposure, which can result in quantification variability.
The cut-off value of the assay was determined based on density plots (R version 2.15.3; (33)) of the number of mitotic stem cells of all experiments for controls (sea water and DMSO), non-carcinogens, genotoxic carcinogens and non-genotoxic carcinogens. The cut-off value of 30 lays in the tail of the distribution corresponding to the 97.5 percentile or two standard deviations.
Concentrations resulting in the death of 20% of the worms (three out of fifteen) during exposure were considered cytotoxic and were not analyzed.

Schmidtea mediterranea [1] = tested on: Schmidtea mediterranea
Experimental: (§1) Asexual strains of the freshwater planarian Schmidtea mediterranea (38, 45) were maintained in culture medium, consisting of water, that was first deionized and then distilled, and to which the following nutrients were added: 1.6 mM NaCl, 1.0 mM CaCl2, 1.0 mM MgSO4, 0.1 mM MgCl2, 0.1 mM KCl and 1.2 mM NaHCO3. The animals were continuously kept in the dark at a room temperature of 20° C. and were fed once a week with veal liver.
Experiments were performed with regenerating animals (heads and tails) to accelerate initial responses to carcinogenic compounds, as this process of massive cell proliferation, migration and differentiation resembles the process of carcinogenesis, and, possibly differently affects the dynamics of stem cells toward genotoxic and non-genotoxic carcinogen exposures (16, 32, 39).
In each experimental condition, animals were cut transversally immediately before exposure to a genotoxic, non-genotoxic or non-carcinogen concentration, medium (control) or medium with DMSO (vehicle control). Exposures were performed in six-well plates (4 ml/well). To exclude intrinsic effects of DMSO on cell proliferation, the DMSO vehicle concentration never exceeded 0.05% and interaction effects between the test compound and DMSO were investigated using a two-way ANOVA (32). […] Animals were fed once a week with veal liver and starved for one week before stem cell proliferation measurements. Stem cell proliferation was measured after one day of regeneration (the mitotic minimum of regeneration), after three days (the mitotic maximum of regeneration), after one week (the end stage of regeneration) after two and six weeks (during homeostasis), as well as at the appearance of organismal phenotypes (15, 46, 47). Phenotypic effects were monitored daily with a stereo microscope.
An in vivo study allows the investigation of the entire organism's response to carcinogenic compounds and, as such, makes it possible to link carcinogen-induced stem cell proliferation with the organism's phenotype. Conditions were subdivided according to their phenotypic effects into concentrations that caused no observable phenotypic effects (category 1), phenotypic effects (category 2, described in phenotypic effect screening) and concentrations that induced organismal death (category 3). Phenotypic parameters that were monitored daily were tissue regression, lesion, blisters, bloating, pigmentation, behavior, regenerative success, body size, tissue outgrowth, flattened posture and organismal death (35). Stem cell proliferation was quantified at the appearance of systemic effects (category 2 concentrations).

[2] = Solubility of test compound in the exposure medium; type: physicochemical; conditions: concentrations higher than 5 mM
Schmidtea mediterranea [3] = conditions: in vivo
Experimental: as §1, with “liver. […]” for “liver.”
In each experimental condition, animals were cut transversally immediately before exposure to a genotoxic, non-genotoxic or non-carcinogen concentration, medium (control) or medium with DMSO (vehicle control). […] Stem cell proliferation was measured after one day of regeneration (the mitotic minimum of regeneration), after three days (the mitotic maximum of regeneration), after one week (the end stage of regeneration) after two and six weeks (during homeostasis), as well as at the appearance of organismal phenotypes (15, 46, 47). Phenotypic effects were monitored daily with a stereo microscope.

[4] = category 2 concentrations, three days (MMS), one week (4NQO), two weeks (S-PB, CPZ, MPH)
[5] = 100 μM, Experiment 2, two weeks exposure
[6] = 100 μM, Experiment 3, two weeks exposure
[7] = Experiment 2, all concentrations, two weeks exposure
[8] = Experiment 3, all concentrations, two weeks exposure
[9] = asexual strain, Schmidtea mediterranea, in vivo
[10] = asexual strain, Schmidtea mediterranea, in vivo, 2 weeks
[11] = 1000 μM, Experiment 1, two weeks exposure
[12] = 1000 μM, Experiment 2, two weeks exposure
[13] = 1000 μM, Experiment 3, two weeks exposure
[14] = all three experiments, two weeks exposure
[15] = 0.3125 μM, Experiment 1, two weeks exposure
[16] = 0.3125 μM, Experiment 3, two weeks exposure
[17] = 0.625 μM, Experiment 1, two weeks exposure
[18] = 0.625 μM, Experiment 2, two weeks exposure
[19] = 0.625 μM, Experiment 3, two weeks exposure

## O=[N+]([O-])c1cc[n+]([O-])c2ccccc12 [4-Nitroquinoline-1-oxide]
Macrostomum lignano; 0.125 μM, Experiment 2, two weeks exposure
  proportion of worms having 30 or more mitotic stem cells: 16.7%
Macrostomum lignano; 0.5 μM, Experiment 1, two weeks exposure
  proportion of worms having 30 or more mitotic stem cells: 77.8%
Macrostomum lignano; 0.5 μM, Experiment 2, two weeks exposure
  proportion of worms having 30 or more mitotic stem cells: 0%
Macrostomum lignano; 0.5 μM, Experiment 3, two weeks exposure
  proportion of worms having 30 or more mitotic stem cells: 36.4%
Schmidtea mediterranea [1]; 4NQO, exposure one week
  Cat. 1 concentrations: No effects on phenotype: 0.1 to 0.5 µM
  Cat. 2 concentrations: Phenotypic effects: 2 µM
  Cat. 3 concentrations: Mortality: 5 µM
Schmidtea mediterranea [1]; [4]
  Number of animals with Behavior effects: 3/4
  Number of animals with Pigmentation: 2/4
  Number of animals with Regenerative success effects: 4/4
  Number of animals with Tissue regression: 2/4

## O=P1(N(CCCl)CCCl)NCCCO1 (stereo not shown) [Cyclophosphamide monohydrate]
Macrostomum lignano; 50 μM, Experiment 1, two weeks exposure
  proportion of worms having 30 or more mitotic stem cells: 0%
Macrostomum lignano; 50 μM, Experiment 2, two weeks exposure
  proportion of worms having 30 or more mitotic stem cells: 0%
Macrostomum lignano; 50 μM, Experiment 3, two weeks exposure
  proportion of worms having 30 or more mitotic stem cells: 16.7%
Macrostomum lignano; 100 μM, Experiment 1 (only three worms quantified, experiment excluded), two weeks exposure
  proportion of worms having 30 or more mitotic stem cells: 66.7%
Macrostomum lignano; [5]
  Pred: + (+ in case 20% or more worms having 30 or more mitotic stem cells)
  proportion of worms having 30 or more mitotic stem cells: 20%
Macrostomum lignano; [6]
  Pred: + (+ in case 20% or more worms having 30 or more mitotic stem cells)
  proportion of worms having 30 or more mitotic stem cells: 33.3%
Macrostomum lignano; [7]
  Prediction of the experiment: Pos
Macrostomum lignano; [8]
  Prediction of the experiment: Pos
Macrostomum lignano
  Overall prediction: Pos
Macrostomum lignano; two weeks exposure
  concentrations predicted positive: 100 µM
  prediction by the assay in the experiments: predicted positive in all experiments

## CN(C)CCCN1c2ccccc2Sc2ccc(Cl)cc21 [CPZ, chlorpromazine hydrochloride]
Schmidtea mediterranea [1]; [9]
  Number of animals with Behavior effects: 4/4
  Number of animals with Body size effects: 2/2
  concentrations that trigger phenotypic effects: 1 µM
Schmidtea mediterranea [1]; [10]
  Cat. 1 concentrations: No effects on phenotype: 0.25 to 0.5 µM
  Cat. 2 concentrations: Phenotypic effects: 0.75 to 1 µM
  Cat. 3 concentrations: Mortality: 2 µM

## OC[C@@H](O)[C@@H](O)[C@H](O)[C@H](O)CO [D-mannitol]
Macrostomum lignano; [11]
  proportion of worms having 30 or more mitotic stem cells: 0%
Macrostomum lignano; [12]
  proportion of worms having 30 or more mitotic stem cells: 0%
Macrostomum lignano; [13]
  proportion of worms having 30 or more mitotic stem cells: 0%
Macrostomum lignano; 5000 μM, Experiment 1, two weeks exposure
  proportion of worms having 30 or more mitotic stem cells: 0%
Macrostomum lignano; 5000 μM, Experiment 2, two weeks exposure
  proportion of worms having 30 or more mitotic stem cells: 0%
Macrostomum lignano; 5000 μM, Experiment 3, two weeks exposure
  proportion of worms having 30 or more mitotic stem cells: 0%
Macrostomum lignano; [14]
  concentration up to which predicted negative: up to 5 mM
Macrostomum lignano; all three experiments, up to 5 mM, two weeks exposure
  worms having a number of mitotic stem cells exceeding the cut-off value: 0%
Macrostomum lignano; two weeks exposure
  prediction by the assay in the experiments: predicted negative by the assay for all three experiments
[2]
  solubility in the medium: insolubility in the medium
Schmidtea mediterranea [1]; in vivo
  phenotypic effects induced by exposure: no phenotypic effects
Schmidtea mediterranea [3]
  effects on proliferative responses: no significant effects

## CCC1(c2ccccc2)C(=O)NC(=O)NC1=O [S-PB, sodium phenobarbital]
Schmidtea mediterranea [1]; S-PB, exposure two weeks
  Cat. 1 concentrations: No effects on phenotype: 1000 µM
  Cat. 2 concentrations: Phenotypic effects: 2000 µM
  Cat. 3 concentrations: Mortality: 4000 µM
Schmidtea mediterranea [1]; [4]
  Number of animals with Behavior effects: 2/2

## COS(C)(=O)=O [MMS, methyl methane sulphonate]
Schmidtea mediterranea [1]; MMS, exposure three days
  Cat. 2 concentrations: Phenotypic effects: 400 to 500 µM
  Cat. 3 concentrations: Mortality: 1000 µM
Schmidtea mediterranea [1]; [4]
  Number of animals with Behavior effects: 14/14
  Number of animals with Body size effects: 10/14
  Number of animals with Pigmentation: 1/14
  Number of animals with Regenerative success effects: 14/14
  Number of animals with Tissue regression: 3/14

## CN(C)CCN(Cc1cccs1)c1ccccn1 [MPH, methapyrilene hydrochloride]
Schmidtea mediterranea [1]; [9]
  Number of animals with Behavior effects: 8/8
  Number of animals with Body size effects: 8/8

## Cc1noc(NS(=O)(=O)c2ccc(N)cc2)c1C [Sulfisoxazole]
Macrostomum lignano; […] μM, Experiment 1, two weeks exposure
  proportion of worms having 30 or more mitotic stem cells: 0%
Macrostomum lignano; […] μM, Experiment 3, two weeks exposure
  proportion of worms having 30 or more mitotic stem cells: 0%
Macrostomum lignano; 500 μM, Experiment 1, two weeks exposure
  proportion of worms having 30 or more mitotic stem cells: 0%
Macrostomum lignano; 500 μM, Experiment 2, two weeks exposure
  proportion of worms having 30 or more mitotic stem cells: 11.1%
Macrostomum lignano; 500 μM, Experiment 3, two weeks exposure
  proportion of worms having 30 or more mitotic stem cells: 0%
Macrostomum lignano; [11]
  proportion of worms having 30 or more mitotic stem cells: 0%
Macrostomum lignano; [12]
  proportion of worms having 30 or more mitotic stem cells: 0%
Macrostomum lignano; [13]
  proportion of worms having 30 or more mitotic stem cells: 0%
Macrostomum lignano; [14]
  concentration up to which predicted negative: up to 1 mM
Macrostomum lignano; concentrations higher than the highest analyzed (Sox >1 mM, CP >100 μM, 4NQO >0.5 μM)
  lethality of the worms: greater than 20%
Macrostomum lignano; two weeks exposure
  prediction by the assay in the experiments: predicted negative for all three experiments

## CC/C(=C(/CC)c1ccc(O)cc1)c1ccc(O)cc1 [Diethylbestrol, Diethylstilbestrol]
Macrostomum lignano; [15]
  Pred: + (+ in case 20% or more worms having 30 or more mitotic stem cells)
  proportion of worms having 30 or more mitotic stem cells: 100%
Macrostomum lignano; 0.3125 μM, Experiment 2, two weeks exposure
  proportion of worms having 30 or more mitotic stem cells: 12.5%
Macrostomum lignano; [16]
  Pred: + (+ in case 20% or more worms having 30 or more mitotic stem cells)
  proportion of worms having 30 or more mitotic stem cells: 33.3%
Macrostomum lignano; [17]
  Pred: + (+ in case 20% or more worms having 30 or more mitotic stem cells)
  proportion of worms having 30 or more mitotic stem cells: 27.3%
Macrostomum lignano; [18]
  Pred: + (+ in case 20% or more worms having 30 or more mitotic stem cells)
  proportion of worms having 30 or more mitotic stem cells: 50%
Macrostomum lignano; [19]
  Pred: + (+ in case 20% or more worms having 30 or more mitotic stem cells)
  proportion of worms having 30 or more mitotic stem cells: 22.2%
Macrostomum lignano; Experiment 1, all concentrations, two weeks exposure
  Prediction of the experiment: Pos
Macrostomum lignano; [7]
  Prediction of the experiment: Pos
Macrostomum lignano; [8]
  Prediction of the experiment: Pos
Macrostomum lignano
  Overall prediction: Pos
Macrostomum lignano; two weeks exposure
  prediction by the assay in the experiments: predicted positive for all three experiments
